According to US20240050422A1, “DRUG DELIVERY VIA MONOACYLGLYCEROL AND FREE FATTY ACID-BASED COMPOSITIONS” (GLYCOSBIO, INC., priority 2021, published 2024):
Like-named read-outs stand apart in the source and are kept apart here.

Legend:
[1] = cited from earlier work
[2] = at 3 hours; 0.5 mg/mL
Method: Approximately 1 mL of bupivacaine solution (0.5 mg/mL in water) or bupivacaine nanoemulsion (0.5 mg/mL in nS100) were added to the donor chamber. At each time point, 70 μL was removed from the receiver chamber and replaced with an equivalent volume of fresh PBS to maintain constant volume. The aliquot from each time point was analyzed by HPLC to determine amount of drug permeating through the membrane over time. The HPLC system consisted of an LC-20AD pump, SIL-20AC HT autosampler, CTO-20A column oven, and SPD-20A UV/vis detector (Shimadzu Scientific Instruments, Inc.). HPLC conditions were: 30 μL injection volume, isocratic elution of mobile phase consisting of 75% methanol and 25% 10 mM sodium phosphate buffer (pH 7.8), flow rate of 1.000 mL/min, column temperature of 40° C., and detection at 263 nm.

[3] = over 7 hours; 1 mg/mL, pH 5-6
Method: At each time point, 80 μL was removed from the receiver chamber and replaced with an equivalent volume of fresh PBS to maintain constant volume. The aliquot from each time point was analyzed by HPLC to determine amount of drug permeating through the membrane over time. The HPLC system consisted of an LC-20AD pump, SIL-20AC HT autosampler, CTO-20A column oven, and SPD-20A UV/vis detector (Shimadzu Scientific Instruments, Inc.). HPLC conditions were: 30 μL injection volume, isocratic elution of mobile phase consisting of 50% methanol and 50% phosphoric acid (0.1%), flow rate of 1.000 mL/min, column temperature of 40° C., and detection at 275 nm.

[4] = over 24 hours; 10 mg/mL
Method: Sesame EMO nanoemulsion (nS50) was prepared from a combination of sesame EMO and FFA oil. Sesame EMO (0.852 g) and sesame FFA (0.648 g) were weighed into a 50 mL metal beaker and heated to 60° C. A coarse emulsion was prepared by adding 13.5 mL water (pre-heated to 60° C.) to the oil. The mixture was subjected to high-sheer homogenizer for 30 seconds, resulting in a milky coarse emulsion. The coarse emulsion was then transferred to QSonica Q700CA sonicator with ½ inch probe. The emulsion was processed for 2 cycles (5 minutes sonication/2 minutes cooling) at 90% power. […] At each time point, 70 μL was removed from the receiver chamber and replaced with an equivalent volume of fresh PBS to maintain constant volume. The aliquot from each time point was analyzed by HPLC to determine amount of drug permeating through the membrane over time. The HPLC system consisted of an LC-20AD pump, SIL-20AC HT autosampler, CTO-20A column oven, and SPD-20A UV/vis detector (Shimadzu Scientific Instruments, Inc.). HPLC conditions were: 30 μL injection volume, isocratic elution of mobile phase consisting of 60% methanol and 40% phosphoric acid (0.1%), flow rate of 1.000 mL/min, column temperature of 40° C., and detection at 210 nm.

[5] = 10 mg/mL
Method: Sesame EMO nanoemulsion (nS50) was prepared from a combination of sesame EMO and FFA oil. Sesame EMO (0.852 g) and sesame FFA (0.648 g) were weighed into a 50 mL metal beaker and heated to 60° C. A coarse emulsion was prepared by adding 13.5 mL water (pre-heated to 60° C.) to the oil. The mixture was subjected to high-sheer homogenizer for 30 seconds, resulting in a milky coarse emulsion. The coarse emulsion was then transferred to QSonica Q700CA sonicator with ½ inch probe. The emulsion was processed for 2 cycles (5 minutes sonication/2 minutes cooling) at 90% power. Approximately 1 mL of trifluoroacetyl tripeptide-2 (Cayman Chemical Company) solution (10 mg/mL in 10% DMSO in water) or trifluoroacetyl tripeptide-2 nanoemulsion (10 mg/mL in 10% DMSO in nS50) were added to the donor chamber. At each time point, 70 μL was removed from the receiver chamber and replaced with an equivalent volume of fresh PBS to maintain constant volume. The aliquot from each time point was analyzed by HPLC to determine amount of drug permeating through the membrane over time.

## C=C(C)[C@@H]1CCC(C)=C[C@H]1c1c(O)cc(CCCCC)cc1O [CBD, cannabidiol]
[1]
  solubility in water: essentially insoluble in water

## CCCCN1CCCCC1C(=O)Nc1c(C)cccc1C (stereo not drawn) [free drug control (bupivacaine), bupivacaine]
[2]
  bupivacaine permeation: undetectable permeation

## O=C(O)c1ccccc1O [free drug control (salicylic acid), salicylic acid]
[3]
  salicylic acid permeation: no salicylic acid permeation

## hexapeptide-11 [free peptide control (hexapeptide-11)]
[4]
  hexapeptide-11 permeation: no peptide permeation

## trifluoroacetyl tripeptide-2
[5]; after 24 hours
  trifluoroacetyl tripeptide-2 permeation: 1.1 ug/cm^2
[5]; at 6 hours
  trifluoroacetyl tripeptide-2 permeation: no peptide permeation
